Consider seven compounds from ChEMBL document CHEMBL3860058, “Sterol-dependent membrane association of the marine sponge-derived bicyclic peptide Theonellamide A as examined by 1H NMR” (Bioorg Med Chem, 2016).

Active and inactive are the calls of the source. The calls are words filed in the database; no cut-off is given here.

Data set [1] is described as follows: Antifungal activity against Trichophyton assessed as growth inhibition using alamar blue staining measured after 14 to 16 hrs by microdilution assay. The class given is functional. (In general: Resazurin is reduced to fluorescent resorufin, in cell work by metabolically active cells.)
A short description of data set [2]: Cytotoxicity against mouse P388 cells. The class given is functional, cell-based.
Data set [3] can be described thus: Antifungal activity against wild-type Candida albicans ATCC 32354 assessed as growth inhibition using alamar blue staining measured after 14 to 16 hrs by microdilution assay. The class given is functional.
For data set [4], the system named is Aspergillus. In words: Antifungal activity against Aspergillus assessed as growth inhibition using alamar blue staining measured after 14 to 16 hrs by microdilution assay. The class given is functional.
Data set [5] can be described thus: Binding affinity to cholesterol containing DMPC-d54/DHPC-d22 bicelles assessed as broadening of aromatic/olefinic signals at 6.5 to 7.6 ppm measured at 200 uM by 1H NMR spectroscopy.
Data set [6] can be described thus: Induction of membrane damage in POPC/cholesterol GUV model assessed as membrane curvature at 20 uM after 13 to 55 mins by TNM-DCCH staining based confocal microscopic analysis.
The nature of data set [7]: Binding affinity to cholesterol containing POPC large unilamellar vescicle in pH 7.4 phosphate buffer by SPR analysis.
Data set [8] deals with Lipid bilayer. In words: Binding affinity to POPC large unilamellar vesicle in pH 7.4 phosphate buffer by SPR analysis.
Data set [9] can be described thus: Binding affinity to DMPC-d54/DHPC-d22 bicelles assessed as […] measured at ratio of 4:10 Mn2+ to compound by 1H NMR spectroscopy relative to control.
A short description of data set [10]: Binding affinity to cholesterol containing DMPC-d54/DHPC-d22 bicelles assessed as […] measured at ratio of 1:10 Mn2+ to compound by 1H NMR spectroscopy relative to control.
A short description of data set [11]: Binding affinity to cholesterol containing DMPC-d54/DHPC-d22 bicelles assessed as […] measured at ratio of 4:10 Mn2+ to compound by 1H NMR spectroscopy relative to control.
Data set [12] in a line: Diffusion coefficient of the compound D2O at 11 mM and 25 degC by 1H NMR spectroscopy. The format is physicochemical. The following applies: 11000 µM.
Data set [13] is described as follows: Aqueous diffusion coefficient of compound in 98:2 ratio of D2O/H2O solvent system at 25 degC by 1H NMR DOSY spectroscopy. The format is physicochemical. The following applies: buffer.

As usually defined, the IC50 is the concentration that inhibits the measured activity by half. On to `CC(/C=C/c1ccc(Br)cc1)=C\[C@H](O)[C@@H]1CC(=O)N[C@@H](CO)C(=O)N[C@@H]2C[n+]3c[nH]c(c3)C[C@H](NC(=O)C[C@H](O)C[C@@H](C(=O)[O-])NC(=O)[C@@H](O)CNC(=O)[C@H]([C@@H](C)c3ccc(Br)cc3)NC(=O)[C@H]([C@@H](O)C(N)=O)NC(=O)[C@H](CC(N)=O)NC2=O)C(=O)N[C@@H]([C@H](C)O)C(=O)N[C@@H](CO)C(=O)N[C@@H](Cc2ccccc2)C(=O)N1`, for which the IC50 was in the range of 2 to 7 µM in data set [1], 500 to 2800 nM in data set [2], 2 to 7 µM in [3] and 2 to 7 µM in data set [4].
The term Kd denotes the concentration at which binding is half-saturated. Higher therefore signals lower affinity. Consider `CC(/C=C/c1ccccc1)=C\[C@H](O)[C@@H]1CC(=O)N[C@@H](CO)C(=O)N[C@@H]2Cn3cc([n+]([C@@H]4O[C@H](CO)[C@H](O)[C@H](O)[C@H]4O)c3)C[C@H](NC(=O)C[C@H](O)C[C@@H](C(=O)[O-])NC(=O)[C@@H](O)CNC(=O)[C@H]([C@@H](C)c3ccc(Br)cc3)NC(=O)[C@H]([C@@H](O)C(N)=O)NC(=O)[C@H](CC(N)=O)NC2=O)C(=O)N[C@@H]([C@H](C)O)C(=O)N[C@@H](CO)C(=O)N[C@@H](Cc2ccccc2)C(=O)N1`, for which the IC50 in [1] lay within 2 to 7 µM; in [2], 500 to 2800 nM; in [3], 2 to 7 µM; in [4], 2 to 7 µM. Moreover, the outcome in [5] and in data set [6] was Active. Further, the equilibrium dissociation constant (Kd) stood at 9.2 µM in data set [7] and 420 µM in [8]. Also, the Ratio in data set [9] is 0.36 to 0.46; in data set [10], 0.85; in data set [11], 0.54 to 0.61.
As to `CC(/C=C/c1ccc(Br)cc1)=C\[C@H](O)[C@@H]1CC(=O)N[C@@H](CO)C(=O)N[C@@H]2C[n+]3c[nH]c(c3)C[C@H](NC(=O)C[C@H](O)C[C@@H](C(=O)[O-])NC(=O)CCNC(=O)[C@H](Cc3ccccc3)NC(=O)[C@H]([C@@H](O)C(N)=O)NC(=O)[C@H](CC(N)=O)NC2=O)C(=O)N[C@@H]([C@H](C)O)C(=O)N[C@@H](CO)C(=O)N[C@@H](Cc2ccccc2)C(=O)N1`, the IC50 in [1] lay in the range of 2 to 7 µM; in data set [2], 500 to 2800 nM; in [3], 2 to 7 µM; in data set [4] it was 2 to 7 µM.
In the case of `CC(/C=C/c1ccc(Br)cc1)=C\[C@H](O)[C@@H]1CC(=O)N[C@@H](CO)C(=O)N[C@@H]2Cn3cc([n+]([C@H]4OC[C@H](O)[C@H](O)[C@H]4O)c3)C[C@H](NC(=O)C[C@H](O)C[C@@H](C(=O)[O-])NC(=O)CCNC(=O)[C@H](Cc3ccc(Br)cc3)NC(=O)[C@H]([C@@H](O)C(N)=O)NC(=O)[C@H](CC(N)=O)NC2=O)C(=O)N[C@@H]([C@H](C)O)C(=O)N[C@@H](CO)C(=O)N[C@@H](Cc2ccccc2)C(=O)N1`, the IC50 in data set [1] lay in the range of 2 to 7 µM; in data set [2] it was 500 to 2800 nM; in data set [3], 2 to 7 µM; in [4], 2 to 7 µM.
Consider `CC(/C=C/c1ccc(Br)cc1)=C\[C@H](O)[C@@H]1CC(=O)N[C@@H](CO)C(=O)N[C@@H]2Cn3cc([n+]([C@@H]4O[C@H](CO)[C@H](O)[C@H](O)[C@H]4O)c3)C[C@H](NC(=O)C[C@H](O)C[C@@H](C(=O)[O-])NC(=O)CCNC(=O)[C@H](Cc3ccc(Br)cc3)NC(=O)[C@H]([C@@H](O)C(N)=O)NC(=O)[C@H](CC(N)=O)NC2=O)C(=O)N[C@@H]([C@H](C)O)C(=O)N[C@@H](CO)C(=O)N[C@@H](Cc2ccccc2)C(=O)N1`, for which the IC50 in data set [1] is 2 to 7 µM; in data set [2], 500 to 2800 nM; in data set [3], 2 to 7 µM; in data set [4], 2 to 7 µM.
Take `OC[C@H]1O[C@@H]2O[C@H]3[C@H](O)[C@@H](O)[C@@H](O[C@H]4[C@H](O)[C@@H](O)[C@@H](O[C@H]5[C@H](O)[C@@H](O)[C@@H](O[C@H]6[C@H](O)[C@@H](O)[C@@H](O[C@H]7[C@H](O)[C@@H](O)[C@@H](O[C@H]8[C@H](O)[C@@H](O)[C@@H](O[C@H]1[C@H](O)[C@H]2O)O[C@@H]8CO)O[C@@H]7CO)O[C@@H]6CO)O[C@@H]5CO)O[C@@H]4CO)O[C@@H]3CO` [BETADEX]: the D is 2.64 ×10⁻¹⁰ m2/s in data set [12] and 2.63 ×10⁻¹⁰ m2/s in data set [13].
On to `CC(/C=C/c1ccc(Br)cc1)=C\[C@H](O)[C@@H]1CC(=O)N[C@@H](CO)C(=O)N[C@@H]2C[n+]3c[nH]c(c3)C[C@H](NC(=O)C[C@H](O)C[C@@H](C(=O)[O-])NC(=O)CCNC(=O)[C@H](Cc3ccc(Br)cc3)NC(=O)[C@H]([C@@H](O)C(N)=O)NC(=O)[C@H](CC(N)=O)NC2=O)C(=O)N[C@@H]([C@H](C)O)C(=O)N[C@@H](CO)C(=O)N[C@@H](Cc2ccccc2)C(=O)N1`, for which the IC50 in data set [1] lay in the range of 2 to 7 µM; in data set [2], 500 to 2800 nM; in data set [3] it was 2 to 7 µM; in [4] it was 2 to 7 µM.
